Starred links: 1 amine or outer side, 2 acyl side, 3 side chain; linkers in the order of their positions; H or OH if unused. Positions of bridges follow the written chain, without caps; N, C: chain ends. Non-standard residues stand in square brackets, D forms with d. Residues, ends and D or L forms follow the SMILES beside them. No end group written: not given here. X1 = CC(=O)NC(C(=O)OC(C(C)C)C(N[*:1])C(=O)[*:2])C(O)C(C)C; PhLac = O=C(O)[CH](O)Cc1ccccc1; NMeT = CN[CH](C(=O)O)[CH](C)O; NMeA = CN[CH](C)C(=O)O; NMeDha = C=C(NC)C(=O)O
What was measured:
GLUTag cells = assay: GLP-1 secretion from control-transduced or untransduced GLUTag cells; assay type: cell-based, murine
Method: (§1) GLUTag cells were maintained in Dulbecco’s Modified Eagle Medium (DMEM) supplemented with 10% fetal bovine serum and 1% penicillin–streptomycin in a humidified incubator at 37 °C and 5% CO2. For adenovirus transduction, GLUTag cells were seeded into poly-D-lysine coated 96-well plates or 4-chamber slides. The next day, cells were transduced with adenoviruses (100–1250 viral particles per cell at time of seeding) as indicated. After 24–30 h, adenovirus-containing media was changed to serum-free growth media for overnight serum starvation. The following day, GLUTag cells were used for cAMP or calcium signaling assays, GLP-1 secretion assays, or immunostaining and imaging.
(§2) GLUTag cells were seeded into poly-D-lysine-coated 96-well plates and transduced with adenovirus as specified above and then tested for GLP-1 secretion. Medium was removed and cells were washed two times with GLP-1 secretion buffer (138 mM NaCl, 4.5 mM KCl, 4.2 mM NaHCO3, 2.5 mM CaCl2, 1.2 mM MgCl2, 10 mM HEPES, 1 mM glucose, and 0.1% bovine serum albumin, pH 7.4). Cells were stimulated for 2 h with indicated treatments diluted in GLP-1 secretion buffer for a total volume of 200 µL/well at 37 °C and 5% CO2. Plates were then centrifuged at 300× g for 1 min at 4 °C, and 75 µL of the supernatant was removed and frozen at −80 °C until subsequent GLP-1 quantification. Total GLP-1 was quantified using the Meso Scale Discovery Total GLP-1 V-PLEX kit (Rockville, MD, USA; K1503PD) according to manufacturer’s instructions. For PTX treatment conditions, cells were pretreated with 100 ng/mL PTX overnight. For experiments with YM-254890, cells were pretreated for 15 min at 37 °C and 5% CO2.

hGPR17L [1] = molecular target: T1, hGPR17L (Homo sapiens, UniProt Q13304); assay: Endpoint cAMP (HTRF) in GLUTag cells expressing hGPR17L; assay type: cell-based; design: host or cells: GLUTag cells (murine enteroendocrine line), adenoviral transduction; conditions: for Predicted (LS) mean diff.: Fig 2B, Forskolin, +Vehicle vs. +100 nM YM-254890
T1 sequence (Q13304 whole entry): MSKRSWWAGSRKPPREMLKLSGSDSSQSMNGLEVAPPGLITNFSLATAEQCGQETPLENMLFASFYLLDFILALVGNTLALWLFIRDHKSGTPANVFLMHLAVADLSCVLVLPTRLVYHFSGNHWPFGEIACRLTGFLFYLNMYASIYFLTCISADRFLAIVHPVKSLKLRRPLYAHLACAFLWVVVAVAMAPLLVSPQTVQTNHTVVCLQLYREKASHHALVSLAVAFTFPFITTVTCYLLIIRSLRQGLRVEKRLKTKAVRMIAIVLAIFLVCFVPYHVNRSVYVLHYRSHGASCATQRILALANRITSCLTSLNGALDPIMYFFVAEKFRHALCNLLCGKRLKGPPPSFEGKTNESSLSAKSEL
Method: as §1
Endpoint cAMP measurements were conducted as follows. GLUTag cells were seeded into poly-D-lysine-coated 96-well plates and transduced with adenovirus as specified above and then tested for cAMP signaling. Medium was removed and cells were washed with cAMP stimulation buffer (Hanks’ balanced salt solution (HBSS), 20 mM HEPES, pH 7.4) and then incubated in cAMP stimulation buffer for 30 min at 37 °C and 5% CO2. Cells were then treated for 30 min with agonist and forskolin in the presence of 500 µM IBMX at 37 °C and 5% CO2. Stimulation buffer was then decanted, and cAMP lysis buffer (50 mM HEPES, 10 mM CaCl2, 0.35% Triton X-100, and 500 µM IBMX) was added and shaken at 700 rpm for 1 h. Lysate was transferred to a 384-well plate, and the cAMP levels were quantified using the Cisbio HTRF cAMP (Gi kit; Revvity, Waltham, MA, USA) according to the manufacturer’s protocol.

hGPR17L [2] = molecular target: T1, hGPR17L; assay: Calcium flux (Calcium 6) in GLUTag cells expressing hGPR17L; assay type: cell-based; design: host or cells: GLUTag cells (murine enteroendocrine line), adenoviral transduction
Method: as §1
GLUTag cells were seeded into black, clear bottom, poly-D-lysine-coated 96-well plates. Cells were transduced and serum starved as specified above. Growth medium was then replaced with 100 μL/well assay buffer (HBSS, 20 mM HEPES, pH 7.4) and 100 μL/well Calcium 6 loading dye (R8190; Molecular Devices, San Jose, CA, USA). During dye loading, cells were incubated at 37 °C and 5% CO2 for 2 h. MDL29,951 or KCl was added to the wells and fluorescence (485 nm excitation, 525 nm emission, and 515 nm automatic emission cutoff) was measured using a Molecular Devices FlexStation3 (Molecular Devices) at 37 °C. For experiments with PTX, cells were pretreated with 100 ng/mL PTX overnight and 100 ng/mL PTX was included with Calcium 6 loading dye for calcium flux assays. For experiments with YM-254890, cells were pretreated for 30 min at 37 °C.

hGPR17L [3] = molecular target: T1, hGPR17L; assay: GLP-1 secretion from GLUTag cells expressing hGPR17L; assay type: cell-based; design: host or cells: GLUTag cells (murine enteroendocrine line), adenoviral transduction
Method: as §1, §2

With “somatostatin (AGCKNFFWKTFTSC; ends and bridges not checked; cysteine pairing not given here; UniProt P61278 103-116, looked up) [SST, Endogenous somatostatin receptor agonist]” the “effect on F/I-stimulated GLP-1 secretion” value (GLUTag cells; 1 µM SST, control- and hGPR17L-transduced cells (Figure S4A,B)) was “inhibited”.
With `Cc1onc(-c2ccccc2Cl)c1C(=O)N(C)c1ccc(Cl)cc1` [GPBAR-A] the “increase in GLP-1 secretion” value (GLUTag cells; 10 µM GPBAR-A, control transduction condition) was 2.67 ± 0.17 fold.
`CCCCC[C@H](O)/C=C/[C@H]1[C@H](O)CC(=O)[C@@H]1C/C=C\CCCC(=O)O` [PGE2, prostaglandin E2] was tested, and the “cAMP levels in response to PGE2 stimulation, % of the control-transduced cells” value (hGPR17L [1]; 300 nM PGE2, hGPR17L-expressing cells) was 83 ± 5.5% and the “increase in GLP-1 secretion” value (GLUTag cells; 300 nM PGE2, control transduction condition) was 1.90 ± 0.06 fold.
For `C=C1C(=O)NC(C)C(=O)N(C)C(C)C(=O)NC(C(OC(=O)C(NC(C)=O)C(O)C(C)C)C(C)C)C(=O)N(C)C(C(C)OC)C(=O)OC(C)C(NC(C)=O)C(=O)OC(Cc2ccccc2)C(=O)N1C` (centres unmarked) [YM-254890] (Ac-T[PhLac][NMeDha]A[NMeA][X1][NMeT](Me); ester 1-C; configuration not given here), the “effect on basal cAMP” value (hGPR17L [1]; 100 ng/mL PTX or 100 nM YM-254890, control- or hGPR17L-transduced) was “no effects”, the “Predicted (LS) mean diff.” value (hGPR17L [1]; log [MDL29,951] (M) -4.0) was 17.41 and the “Predicted (LS) mean diff.” value (hGPR17L [1]; log [MDL29,951] (M) -4.6) was 19.49. The “Predicted (LS) mean diff.” value (hGPR17L [1]; log [MDL29,951] (M) -5.2) was 17.04, the “Predicted (LS) mean diff.” value (hGPR17L [1]; log [MDL29,951] (M) -5.8) was 11.34 and the “Predicted (LS) mean diff.” value (hGPR17L [1]; log [MDL29,951] (M) -6.4) was 5.843. For the same molecule, the “Predicted (LS) mean diff.” value (hGPR17L [1]; log [MDL29,951] (M) -7.0) was 2.922, the “Predicted (LS) mean diff.” value (hGPR17L [1]; log [MDL29,951] (M) -7.6) was 8.08 and the “Predicted (LS) mean diff.” value (hGPR17L [1]; log [MDL29,951] (M) -8.2) was 13.01. The “Predicted (LS) mean diff.” value (hGPR17L [1]; log [MDL29,951] (M) -8.8) was 10.15, the “Predicted (LS) mean diff.” value (hGPR17L [1]; log [MDL29,951] (M) -9.4) was 6.783 and the “effect on F/I-stimulated GLP-1 secretion” value (GLUTag cells; 100 nM YM-254890, GLUTag cells) was “inhibited”. For the same molecule, the “effect on F/I-stimulated GLP-1 secretion” value (GLUTag cells; 3 µM YM-254890, control cells) was “strong inhibitory effects”, the “effect on PMA-stimulated GLP-1 secretion” value (GLUTag cells; YM-254890 concentration–response, 300 nM PMA) was “no effect” and the “effect on 15 mM KCl-stimulated calcium mobilization” value (hGPR17L [2]; 100 ng/mL PTX or 100 nM YM-254890, Figure 2D) was “no effect”. For the same molecule, the “concentration giving robust inhibition of MDL29,951-stimulated calcium mobilization” value (hGPR17L [2]; 1 µM MDL29,951, concentration-response) was ~ 100 nM, the “effect on 15 mM KCl-stimulated calcium flux” value (hGPR17L [2]; YM-254890 concentration-response, Figure S5D) was “no effect” and the “effect on PMA-stimulated GLP-1 secretion” value (hGPR17L [3]; 100 nM YM-254890, 300 nM PMA, control or hGPR17L-expressing cells) was “no effect”. The “effect on MDL29,951-mediated inhibition of PMA-stimulated GLP-1 secretion” value (hGPR17L [3]; 100 nM YM-254890, 100 µM MDL29,951, 300 nM PMA) was “no effect” and the “effect on F/I-stimulated GLP-1 secretion” value (hGPR17L [3]; 3 µM YM-254890, hGPR17L-expressing cells) was “strong inhibitory effects”.
In the case of `CCCCCCCCCCCCCC(=O)O[C@@H]1[C@@H](C)[C@@]2(O)[C@@H](C=C(CO)C[C@]3(O)C(=O)C(C)=C[C@@H]23)[C@@H]2C(C)(C)[C@]12OC(C)=O` [PMA, phorbol 12-myristate 13-acetate], the “increase in GLP-1 secretion” value (GLUTag cells; 300 nM PMA, control transduction condition) is reported as 4.14 ± 0.18 fold.
In the case of `O=C(O)c1ccc(OCCCc2ccc(OCCCCOC3CCCCC3)cc2)c(C(=O)NC2CCCC(C(=O)O)C2)c1` (centres unmarked) [HAMI3379], the “effect on MDL29,951-mediated inhibition of F/I-stimulated GLP-1 secretion” value (hGPR17L [3]; 10 µM HAMI3379) is reported as “significantly attenuated”.
